# Reference: publication PMC10794144, “A novel antibiotic class targeting the lipopolysaccharide transporter” (Nature, 2024)
# Key:
# E. coli ATCC 25922 = assay: microbe, parasite or virus in culture
# Experimental: (§1) MIC determinations were performed using the broth microdilution method and in line with CLSI guidelines M07 and M100 (refs. [37],[38]). Bacterial inocula were prepared by diluting a 0.5 McFarland suspension in CAMHB or lysogeny broth (LB) specifically for A. baylyi isolates. […] MIC values of all of the tested antibiotics were read as the lowest compound concentration inhibiting bacterial growth by naked eye or beyond which the OD600 ceased to decrease.
# A. baumannii = assay: microbe, parasite or virus in culture
# Experimental: as §1
compound,measurement,setting,value
CN1C(=O)[C@H](CCCN)NC(=O)[C@H](CCCN)NCc2ccccc2Sc2ccccc2CNC(=O)[C@@H]1Cc1c[nH]c2ccccc12 [RO7036668],MIC,"E. coli ATCC 25922; CAMHB, mode of at least three replicates (RO7036668 one replicate)",>64 µg/mL
same,MIC,"E. coli ATCC 25922; Escherichia coli, ATCC25922",> 64 µg/mL
same,MIC range,"A. baumannii; 10 MDR isolates, CAMHB, MCPs read at 80% growth inhibition",1 to 16 µg/mL
same,MIC90,A. baumannii; Acinetobacter baumannii,16 µg/mL
same,MIC,"A. baumannii; Acinetobacter baumannii, ATCC19606, ATCC 19606, CAMHB, MCPs read at 80% growth inhibition",4 µg/mL
